Experiments:
[1] = tested on: αvβ3 integrin; test: Integrin binding by cross-linking/extraction/reversal technique; format: cell-based, rat; details: equimolar tethered brushes; vs FNIII7-10 support
Procedure: (§1) In vitro evaluation of these engineered titanium surfaces was performed using primary rat bone marrow stromal cells since this heterogeneous population contains osteoprogenitors, and human bone marrow stromal cells are currently used in clinical applications. Cell adhesion was examined using a centrifugation assay that applies a controlled detachment force. To allow direct comparisons between ligand-tethered surfaces, an equimolar ligand density of 0.9 pmol/cm^2 was used; this value represents the highest ligand density that could be ascribed for both surfaces to be equimolar. […] As a complementary test of integrin specificity, integrin binding was quantified using a biochemical cross-linking/extraction/reversal technique.

[2] = tested on: α5β1 integrin; test: as above; format: cell-based, rat; details: equimolar tethered brushes; vs RGD-tethered brushes and serum-exposed titanium
Procedure: as §1

[3] = tested on: FAK; test: FAK phosphorylation Western blotting on ligand-tethered SAMs; format: cell-based, murine
Procedure: Cells were detached and gently agitated in serum-free suspension for 45 min to reduce background. Cells were then seeded at 200 cells/mm^2 serum-free for 1 h. Cells were lysed in RIPA buffer (1% Triton X-100, 1% sodium deoxycholate, 0.1% SDS, 150 mM NaCl, 150 mM Tris-HCl (pH 7.2), 350 μg/ml PMSF, 10 μg/ml leupeptin, and 10 μg/ml aprotonin) for 20 min on ice. Samples were pipetted up and down 20 times and centrifuged at 8000 g for 10 min to shear DNA and isolate protein contents. Total protein was quantified using micro-BCA (Pierce). Equal amounts of protein were boiled for 10 min in Laemmli buffer and separated by SDS-PAGE on a 7% gel, transferred to nitrocellulose membranes, and blocked with Blotto (5% nonfat dry milk, 0.20% Tween-20) overnight at 4° C. Membranes were gently rocked in antibodies against FAK and specific phosphorylated FAK tyrosine residues (anti-total FAK at 1 μg/ml, anti-FAK pY397 at 0.35 μg/ml, anti-FAK pY576 at 0.5 μg/ml) for 1 h. After washing with TBS-Tween (20 mM Tris HCl pH 7.6, 137 mM NaCl, 0.1% Tween-20), secondary antibody (biotin-conjugated anti-rabbit IgG; 1:20,000) was added for 1 h, followed by alkaline phosphatase-conjugated anti-biotin antibody (1:10,000) in Blotto. Immunoreactivity was assessed by ECF fluorescent substrate. FAK bands were visualized by a Fuji Image Analyzer and phosphorylation levels normalized to total FAK.

[4] = tested on: HFN7.1 monoclonal antibody; test: ELISA with HFN7.1 monoclonal antibody; format: binding; details: passively adsorbed ligands, various coating concentrations
Procedure: An ELISA was used to probe for the biological activity of the FNIII7-10 fragment compared to pFN. FNIII7-10 or pFN was adsorbed onto either uncoated or Neutravidin-coated (100 μg/ml) 96-well black U-well Dynex plates at various concentrations for 30 min. Following incubation in blocking buffer (0.25% BSA, 0.1 M EDTA, 2.5% Tween-20, 0.00125% NaN3), HFN7.1 antibody (0.6 μg/ml in blocking buffer) was added for 1 h at 37° C., and, after washing with blocking buffer, surfaces were incubated in alkaline phosphatase-conjugated anti-mouse IgG (0.6 μg/ml) for 1 h at 37° C. Washed surfaces were exposed to 4-methylumbelliferyl phosphate (25 mg/ml in 10 mM diethanolamine, pH 9.5). The resulting fluorescence was quantified using an HTS 7000 Plus plate reader (Perkin Elmer, Foster City, Calif.) at 360 nm excitation and 465 nm emission.

[5] = tested on: MC3T3-E1 cells; test: Cell proliferation rate by BrdU incorporation; format: cell-based, murine; details: vs RGD-tethered surfaces at low and high peptide surface densities
Procedure: Cells were seeded on surfaces in 10% serum for 16 h, and BrdU (3.1 μg/ml) was added for the last 4 h. After washing with DPBS, samples were fixed in 70% cold ethanol for 10 min, denatured in 4 M HC1 for 20 min, neutralized in 50 mM NaCl in 100 mM Tris-HCI (pH 7.4), washed, and blocked with 5% FBS+1% heat-denatured BSA. Cultures were incubated in anti-BrdU antibody (1:1000) and AlexaFluor488-conjugated anti-mouse IgG (1:200). Nuclei were counter-stained with Hoechst dye (1:10,000). Fluorescent images were used to quantify the number of cells positive for BrdU relative to total cell nuclei using an in-house image analysis routine. Ten representative fields were analyzed per well with multiple wells for each surface condition.

[6] = tested on: bone marrow stromal cells; test: Calcium incorporation (matrix mineralization) assay; format: cell-based, rat; details: 14 days in culture; vs untreated titanium
Procedure: Primary bone marrow stromal cells were harvested from the femora of young adult male Wistar rats in accordance with an IACUC-approved protocol. After excision, hindleg femora and tibiae were cleared of soft tissue and rinsed in growth medium (α-minimal essential medium supplemented with 10% fetal bovine serum, 1% penicillin-streptomycin, and 0.3 μg/ml amphotericin B). The ends of the long bones were then removed and the marrow space was flushed with culture medium (3-5 ml), using a syringe with an 18-gauge needle. Marrow isolates were pooled, centrifuged, resuspended in growth medium, and seeded for adhesion-dependent selection on tissue culture polystyrene dishes. Non-adherent hematopoietic cells were removed during subsequent medium exchanges, which occurred every other day. Cells were subcultured every two days according to standard techniques. For in vitro osteogenic assays, cells were seeded at 10,000 cells/cm^2 in growth medium. After 24 h, cultures were maintained in osteogenic medium consisting of growth medium supplemented with 50 μg/ml L-ascorbic acid and 3 mM sodium β-glycerophosphate.
Calcium content was determined by dissolving mineralized deposits with 1 N acetic acid overnight. […] The absorbance of the resulting samples was measured at 650 nm and compared to a linear standard curve of CaCl2 in 1 N acetic acid.

[7] = tested on: rat femur segmental defect; test: 8 mm segmental defect in the rat femur, micro-CT bone formation; format: in vivo; details: coated PCL scaffolds (20 μg/ml) vs PCL and empty defects; 4 and 12 weeks
Procedure: The ability of GFOGER peptide (SEQ ID NO:1)-coated polymeric scaffolds to heal critical sized defects was examined. […] A 8 mm segmental defect in the rat femur was used to evaluate bone repair. Three experimental groups were evaluated: (i) empty defect controls, (ii) PCL scaffolds, and (iii) GFOGER peptide (SEQ ID NO:1)-coated PCL scaffolds. Polycaprolactone (PCL) is a clinically used polymer widely used in orthopaedic and soft tissue applications. Scaffolds were passively coated with GFOGER peptide (SEQ ID NO:1) (20 μg/ml) as described above. Bone formation was assessed non-invasively via micro-computed tomography (micro-CT) at 4 and 12 weeks. […] No differences in bone formation were observed between PCL and empty defects.

## GRGDSPC [RGD peptide, linear RGD oligopeptide purchased from BACHEM; primarily supports αvβ3-mediated adhesion, reference compound]
[1]
  bound αvβ3 integrin: higher levels of bound αvμ3

## FNIII7-10: monobiotinylated recombinant fibronectin fragment spanning the 7-10th type III repeats of fibronectin; α5β1 integrin ligand
[2]
  bound α5β1 integrin: significantly higher levels of bound α5β1 integrin
[3]; among both peptide-tethered surfaces
  FAK tyrosine-861 phosphorylation: phosphorylated at similar levels
[3]; maximum peptide densities, vs RGD-tethered surface
  FAK tyrosine-397 phosphorylation: increased almost threefold
[3]; vs RGD-functionalized support
  FAK tyrosine-576 phosphorylation: significantly higher
[4]
  HFN7.1 binding (biological activity): equivalent functional activity
[5]
  cell proliferation rate (BrdU incorporation): two-fold increase

## GGYGGGPC(GPP)5GFOGER(GPP)5GPC [GFOGER peptide]
[6]
  calcium-based mineral deposition: three-fold enhancement
[7]
  bone formation (micro-CT): enhancement in bone formation

— patent US8445006B2, “Biomolecular coating for implants” (Georgia Tech Research Corporation, priority 2006, dated 2013)
